The source of these data is patent US5656590A, “Treatment of anorexia and related states” (Amylin Pharmaceuticals, Inc., priority 1993, dated 1997).

Ends that are not written are not given here.

The nature of series [1]: amylin agonist activity in vivo: ability to induce hyperlactemia and/or hyperglycemia in mammals. The settings on record: treated test animals. The source says:
Analogues of amylin can be assayed for activity in the soleus muscle assay described above. Amylin agonist activity of compounds may also be assessed by the ability to induce hyperlactemia and/or hyperglycemia in mammals. […] These preferred compounds include ^25 Pro^26 Val^28,29 Pro-h-amylin, ^25,28,29 Pro-h-amylin, and ^18 Arg^25,28 Pro-h-amylin.

Series [2] can be described thus: solubility and stability characteristics compared to human amylin. It is filed as physicochemical.
A short description of series [3]: toxicological studies with amylin, two weeks of administration (rats). It is filed as in vivo. The source says:
(§1) While this proposal is counter to reports that amylin can suppress appetite (which is clearly an undesirable feature for treatment of anorexia or cachectic states), applicant believes that the appetite suppressant effects of amylin is seen only at very high doses and may be short lived. Indeed, applicant has discovered that in toxicological studies with amylin in both rats and dogs, where two weeks of amylin administration were used, there was no reduction in food intake or weight in the animal.

The nature of series [4]: toxicological studies with amylin, two weeks of administration (dogs). The series is classed as in vivo.
Text: as §1

Series [5] can be described thus: administration of amylin to anesthetized rats: blood lactate and blood glucose. The series is classed as in vivo. The source says: The term "amylin" is used in this application to include compounds defined by Young et al., U.S. application Ser. No. 07/640,478, filed Jan. 10, 1991, now U.S. Pat. No. 5,234,906, entitled "Hyperglycemic Compositions", which (including drawings) is hereby incorporated by reference. For example, it includes the peptide hormone, and species variations of it, referred to as amylin which is synthesized and secreted from the beta cells of the pancreas. Thus, it includes human amylin, cat amylin, dog amylin; rat amylin, mouse amylin, hamster amylin, and guinea pig amylin. Preferably the amylin has an EC50 of less than 1 nM in the rat soleus muscle assay as described in, for example, European Patent Application 88307927.9. Amylin functions along with insulin, which is stored and released from the same pancreatic beta cells, to regulate fuel metabolism. Amylin acts through receptors located in skeletal muscle to increase glycogen turnover in this tissue, believed to result in an increased return to the bloodstream of lactate, which is a major precursor of hepatic gluconeogenesis. Amylin cosecretion with insulin after meals therefore results in restoration of hepatic glycogen content and limits the potential which would otherwise exist for insulin to induce hypoglycemia. […]

A further series deals with liver glucose output. The following applies: rats; cited from earlier work.

Regarding ^18 Arg^25,28 Pro-h-amylin, the “amylin activity in vivo (hyperlactemia, hyperglycemia)” value (from here on “amylin activity in vivo”) in series [1] is reported as “marked hyperlactemia followed by hyperglycemia”. In series [2], the solubility characteristics result is “more desireable” and the stability characteristics result is listed as “more desireable”.

Turning to ^25 Pro^26 Val^28,29 Pro-h-amylin, in series [2], the solubility characteristics result is “more desireable” and the stability characteristics entry is given as “more desireable”.

Regarding “^25,28,29 Pro-h-amylin (KCNTATCATQRLANFLVHSSNNFGPILPPTNVGSNTY; ends and bridges not checked; cysteine pairing not given here; UniProt P10997 34-70, looked up, variant A25P S28P S29P) [agonist analogue of human amylin]”, the “amylin activity in vivo” value in series [1] is recorded as “marked hyperlactemia followed by hyperglycemia”. In addition, in series [2], the solubility characteristics entry is reported as “more desireable” and the stability characteristics result is on record as “more desireable”.

Turning to “^28 Pro-h-amylin (KCNTATCATQRLANFLVHSSNNFGAILPSTNVGSNTY; ends and bridges not checked; cysteine pairing not given here; UniProt P10997 34-70, looked up, variant S28P) [agonist analogue of human amylin]”, in series [1], the “amylin activity in vivo” value is listed as “marked hyperlactemia followed by hyperglycemia”.

In the case of “amylin (KCNTATCATQRLANFLVHSSNNFGAILSSTNVGSNTY; Islet amyloid polypeptide; UniProt P10997 34-70, looked up) [peptide hormone, and species variations of it, synthesized and secreted from the beta cells of the pancreas]”, the “reduction in food intake” value in series [3] and in series [4] was “no reduction” throughout. Further, the reduction in weight result in series [3] and in series [4] was “no reduction” each time. Moreover, in series [5], the blood lactate levels entry is given as “large increases in blood lactate levels”. Moreover, the blood glucose levels entry in series [5] (following the lactate increase) was “increased blood glucose levels”. Besides, in the series with liver glucose output, the “effect on insulin-mediated suppression of liver glucose output” value is given as “reverses insulin-mediated suppression of liver glucose output”.

For “des-^1 Lys-h-amylin (CNTATCATQRLANFLVHSSNNFGAILSSTNVGSNTY; ends and bridges not checked; cysteine pairing not given here; UniProt P10997 34-70, looked up, variant K1*) [agonist analogue of human amylin]”, the “amylin activity in vivo” value in series [1] is on record as “marked hyperlactemia followed by hyperglycemia”.

For the substance des-^1 Lys^18 Arg^25,28 Pro-h-amylin, the “amylin activity in vivo” value in series [1] was “marked hyperlactemia followed by hyperglycemia”.
